The results in this text go back to patent US12180226B2, “Spirotricycle RIPK1 inhibitors and methods of uses thereof” (Merck Sharp & Dohme LLC, priority 2021, dated 2024).

By EC50 is commonly meant the concentration that produces a half-maximal response.

Sequence of RIPK1 (recombinant GST-RIPK1 kinase domain, residues 1-327) (Q13546 1-327): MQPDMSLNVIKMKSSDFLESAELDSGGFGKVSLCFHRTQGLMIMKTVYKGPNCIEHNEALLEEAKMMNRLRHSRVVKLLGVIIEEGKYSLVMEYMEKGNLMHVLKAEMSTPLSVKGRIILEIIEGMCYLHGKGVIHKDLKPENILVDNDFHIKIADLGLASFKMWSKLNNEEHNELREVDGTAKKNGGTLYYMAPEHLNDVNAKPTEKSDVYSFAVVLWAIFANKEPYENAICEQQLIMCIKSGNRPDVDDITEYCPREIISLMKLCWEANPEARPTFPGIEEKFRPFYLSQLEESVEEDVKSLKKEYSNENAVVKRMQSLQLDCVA

This assay concerns the target RIPK1 (recombinant GST-RIPK1 kinase domain, residues 1-327) (Homo sapiens (Human), UniProt Q13546). Briefly: RIPK1-ADP-Glo Enzymatic Assay. Format: biochemical. As to conditions: ADP-Glo; 25 nM GST-RIPK1, 300 μM ATP; assay lower limit ~25 nM; read-out: RIPK1 V0 Ec50. In outline:
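Using dephosphorylated MBP (3 μM) as substrate and 300 μM ATP, 25 nM baculovirus-produced enzyme was reacted for 150 min after a 30-min compound pre-incubation. Luminescent ADP detection followed; lower confidence limit ~25 nM.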
A general note: ADP-Glo first removes unused ATP, then detects ADP through luciferase.
Take `N#CN1CCC2(CC1)O[C@@H]1CC[C@@H](c3cc(F)cc(F)c3)N1C2=O` [Example 4.48, (5′S,7a′R)-5′-(3,5-difluorophenyl)-3′-oxotetrahydro-1H,3′H-spiro[piperidine-4,2′-pyrrolo[2,1-b] [1,3]oxazole]-1-carbonitrile]: the EC50 worked out at 0.15 µM.

`O=C(c1cccc(Cl)c1)N1CCC2(CC1)O[C@@H]1CC[C@@H](c3cc(F)cc(F)c3)N1C2=O` [Example 6.9, (5′S,7a′R)-1-(3-chloro-benzene-1-carbonyl)-5′-(3,5-difluoro-phenyl)tetrahydro-3′H-spiro[piperidine-4,2′-pyrrolo[2,1-b] [1,3]oxazol]-3′-one]: the EC50 was less than 0.025 µM. For `Cc1nc(N2CCC3(CC2)O[C@@H]2CC[C@@H](c4cc(F)cc(F)c4)N2C3=O)ncc1F` [Example 4.61, (5′S,7a′R)-5′-(3,5-difluorophenyl)-1-(5-fluoro-4-methylpyrimidin-2-yl)tetrahydro-3′H-spiro[piperidine-4,2′-pyrrolo[2,1-b] [1,3]oxazol]-3′-one], the concentration giving a half-maximal response (EC50) is 0.0534 µM. With `Cc1ccc(C(=O)N2CCC3(CC2)O[C@@H]2CC[C@@H](c4cc(F)cc(F)c4)N2C3=O)s1` [Example 5.34, (5′S,7a′R)-5′-(3,5-difluoro-phenyl)-1-(5-methylthio-phene-2-carbonyl)tetra-hydro-3′H-spiro[piperidine-4,2′-pyrrolo[2,1-b]oxazol]-3′-one], the EC50 was less than 0.025 µM. Take `O=C(c1sccc1Cl)N1CCC2(CC1)O[C@@H]1CC[C@@H](c3cc(F)cc(F)c3)N1C2=O` [Example 5.31, (5′S,7a′R)-1-(3-chloro-thiophene-2-carbonyl)-5′-(3,5-difluorophenyl)tetra-hydro-3′H-spiro[piperi-dine-4,2′-pyrrolo[2,1-b]oxazol]-3′-one]: the EC50 is less than 0.025 µM. The result for `COC(=O)c1cnc(N2CCC3(CC2)O[C@@H]2CC[C@@H](c4ccccc4)N2C3=O)cc1OC` [Example 4.210, methyl 4-methoxy-6-[(5′S,7a′R)-3′-oxo-5′-phenyltetrahydro-1H,3′H-spiro[piperidine-4,2′-pyrrolo[2,1-b] [1,3]oxazol]-1-yl]pyridine-3-carboxylate] reads 0.076 µM; that for `O=C(c1ccc(Br)cn1)N1CCC2(CC1)O[C@@H]1CC[C@@H](c3cc(F)cc(F)c3)N1C2=O` [Example 6.100, (5′S,7a′R)-1-(5-bromo-pyridine-2-carbonyl)-5′-(3,5-difluorophen-yl)tetrahydro-3′H-spiro[piperidine-4,2′-pyrrolo[2,1-b][1,3]-oxazol]-3′-one], 0.0667 µM. For `COc1cc(F)cc([C@@H]2CC[C@H]3OC4(CCN(C(=O)c5ccccc5)CC4)C(=O)N32)c1` [Example 17.9, (5′S,7a′R)-1-benzoyl-5′-(3-fluoro-5-methoxyphenyl)tetrahydro-3′H-spiro[piperidine-4,2′-pyrrolo[2,1-b]oxazol]-3′-one], the EC50 was determined as 0.0407 µM. The same measure for `Cc1ccc([C@@H]2CC[C@H]3OC4(CCN(C(=O)c5ccccc5)CC4)C(=O)N32)cc1` [Example 17.3, (5′S,7a′R)-1-benzoyl-5′-(p-tolyl)tetrahydro-3′H-spiro[piperidine-4,2′-pyrrolo[2,1-b]oxazol]-3′-one]: less than 0.025 µM. For the compound `Cc1cnn(-c2cc(N3CCC4(CC3)O[C@@H]3CC[C@@H](c5ccccc5)N3C4=O)ncn2)c1` [Example 4.176, (5′S,7a′R)-1-[6-(4-methyl-1H-pyrazol-1-yl)pyrimidin-4-yl]-5′-phenyltetrahydro-3′H-spiro[piperidine-4,2′-pyrrolo[2,1-b] [1,3]oxazol]-3′-one], the concentration for a half-maximal effect (EC50) turned out to be 0.0488 µM. The result for `O=C1N2[C@@H](CC[C@H]2c2ccccc2F)OC12CN(CCc1ccccc1)C2` [Example 22.8, (5′S,7a′R)-5′-(2-fluorophenyl)-1-(2-phenylethyl)tetrahydro-3′H-spiro[azetidine-3,2′-pyrrolo[2,1-b][1,3]oxazol]-3′-one] reads 0.348 µM; that for `CC1CN(C(=O)c2ccccc2)CCC12O[C@@H]1CC[C@@H](c3cc(F)cc(F)c3)N1C2=O` (stereo partly drawn) [Example 6.110, (5′S,7a′R)-1-(benzene-carbonyl)-5′-(3,5-difluorophenyl)-3-methyltetrahydro-3′H-spiro[piperidine-4,2′-pyrrolo[2,1-b][1,3]-oxazol]-3′-one], less than 0.025 µM; that for `COC(=O)c1ccc(N2CCC3(CC2)O[C@@H]2CC[C@@H](c4ccccc4)N2C3=O)nc1` [Example 4.202, methyl 6-[(5′S,7a′R)-3′-oxo-5′-phenyltetrahydro-1H,3′H-spiro[piperidine-4,2′-pyrrolo[2,1-b] [1,3]oxazol]-1-yl]pyridine-3-carboxylate], 0.0385 µM. For the compound `C#Cc1ccc(C(=O)N2CCC3(CC2)O[C@@H]2CC[C@@H](c4cc(F)cc(F)c4)N2C3=O)cc1` [Example 5.27, (5′S,7a′R)-5′-(3,5-difluoro-phenyl)-1-(4-ethynyl-benzoyl)tetrahydro-3′H-spiro[piperidine-4,2′-pyrrolo[2,1-b]oxazol]-3′-one], the EC50 amounted to 0.17 µM. Consider `O=C1N2[C@@H](CC[C@H]2c2ccccc2)OC12CCN(c1ccc(-c3cc4n(n3)CCC4)c3ncnn13)CC2` [Example 21.18, (5′S,7a′R)-1-[8-(5,6-dihydro-4H-pyrrolo[1,2-b]pyrazol-2-yl)[1,2,4]triazolo[1,5-a]pyridin-5-yl]-5′-phenyltetrahydro-3′H-spiro[piperidine-4,2′-pyrrolo[2,1-b][l,3]oxazol]-3′-one], for which the EC50 is less than 0.025 µM.

`CCOC(=O)c1ccc(N2CCC3(CC2)O[C@@H]2CC[C@@H](c4ccccc4)N2C3=O)nc1` [Example 4.200, ethyl 6-[(5′S,7a′R)-3′-oxo-5′-phenyltetrahydro-1H,3′H-spiro[piperidine-4,2′-pyrrolo[2,1-b] [1,3]oxazol]-1-yl]pyridine-3-carboxylate]: the EC50 was 0.0525 µM. Turning to `CC1CN(c2ccnc3ccnn23)CCC12O[C@@H]1CC[C@@H](c3ccccc3)N1C2=O` (stereo partly drawn) [Example 4.235, (4R,5′S,7a′R)-3-methyl-5′-phenyl-1-(pyrazolo[1,5-a]pyrimidin-7-yl)tetrahydro-3′H-spiro[piperidine-4,2′-pyrrolo[2,1-b] [1,3]oxazol]-3′-one], the EC50 was less than 0.025 µM. As for `Cc1cncc(C(=O)N2CCC3(CC2)O[C@@H]2CC[C@@H](c4cc(F)cc(F)c4)N2C3=O)c1` [Example 6.59, (5′S,7a′R)-5'-(3,5-difluorophenyl)-1-(5-methylpyridine-3-carbonyl)tetrahydro-3′H-spiro[piperidine-4,2′-pyrrolo[2,1-b] [1,3]oxazol]-3′-one], the EC50 was found to be 0.281 µM. The same measure for `O=C1N2[C@@H](CC[C@H]2c2ccccc2)OC12CCN(c1ncc(F)cc1C(F)F)CC2` [Example 11.25, (5′S,7a′R)-1-[3-(difluoromethyl)-5-fluoropyridin-2-yl]-5′-phenyltetrahydro-3′H-spiro[piperidine-4,2′-pyrrolo[2,1-b][1,3]oxazol]-3′-one]: 0.0611 µM; for `O=C(c1cnsc1)N1CCC2(CC1)O[C@@H]1CC[C@@H](c3cc(F)cc(F)c3)N1C2=O` [Example 5.51, (5′S,7a′R)-5′-(3,5-difluoro-phenyl)-1-(isothiazole-4-carbonyl)tetrahydro-3′H-spiro[piperidine-4,2′-pyrrolo[2,1-b]oxazol]-3′-one]: 0.0483 µM. As to `CSc1cc(N2CCC3(CC2)O[C@@H]2CC[C@@H](c4cc(F)cc(F)c4)N2C3=O)ncc1C#N` [Example 4.71, 6-[(5′S,7a′R)-5′-(3,5-difluorophenyl)-3′-oxotetrahydro-1H,3′H-spiro[piperidine-4,2′-pyrrolo[2,1-b] [1,3]oxazol]-1-yl]-4-(methylsulfanyl)pyridine-3-carbonitrile], the EC50 turned out to be 0.0303 µM. Consider `COc1cc(C(=O)N2CCC3(CC2)O[C@@H]2CC[C@@H](c4cccc(F)c4)N2C3=O)ccc1F` [Example 6.120, (5′S,7a′R)-1-(4-fluoro-3-methoxybenzene-1-carbonyl)-5′-(3-fluoro-phenyl)tetrahydro-3′H-spiro[piperidine-4,2′-pyrrolo[2,1-b][1,3]oxazol]-3′-one], for which the EC50 is less than 0.025 µM. On to `O=C(c1ccccc1F)N1CCC2(CC1)O[C@@H]1CC[C@@H](c3cc(F)cc(F)c3)N1C2=O` [Example 1.9, (5′S,7a′R)-5′-(3,5-difluorophenyl)-1-(2-fluorobenzene-1-carbonyl)tetrahydro-3′H-spiro[piperidine-4,2′-pyrrolo[2,1-b] [1,3]oxazol]-3′-one], for which the EC50 is less than 0.025 µM.

Turning to `O=C(C1CCCCC1)N1CCC2(CC1)O[C@@H]1CC[C@@H](c3cc(F)cc(F)c3)N1C2=O` [Example 5.7, (5′S,7a′R)-1-(cyclohexane-carbonyl)-5′-(3,5-difluoro-phenyl)tetrahydro-3′H-spiro[piperidine-4,2′-pyrrolo[2,1-b][1,3]oxazol]-3′-one], the EC50 came out at 0.236 µM.

With `Cc1nc(C(=O)N2CCC3(CC2)O[C@@H]2CC[C@@H](c4cc(F)cc(F)c4)N2C3=O)no1` [Example 6.20, (5′S,7a′R)-5′-(3,5-difluorophenyl)-1-(5-methyl-1,2,4-oxadi-azole-3-carbonyl)-tetrahydro-3′H-spiro [piperidine-4,2′-pyrrolo[2,1-b][1,3]oxazol]-3′-one], the EC50 stood at 0.136 µM.

As to `CC1CN(C(=O)c2ccccc2)CCC12O[C@@H]1CC[C@@H](c3cc(F)cc(F)c3)N1C2=O` (single isomer, unassigned) [Example 2.7, (3[R or S],4[S or R], 5′S,7a′R)-1-benzoyl-5′-(3,5-difluorophenyl)-3-methyltetrahydro-3′H-spiro[piperidine-4,2′-pyrrolo[2,1-b]oxazol]-3′-one], the EC50 was 0.0431 µM. With `O=C(c1cc(F)cc(F)c1)N1CCC2(CC1)O[C@@H]1CC[C@@H](c3cc(F)cc(F)c3)N1C2=O` [Example 6.48, (5′S,7a′R)-1-(3,5-difluorobenzene-1-carbonyl)-5′-(3,5-difluorophenyl)tetra-hydro-3′H-spiro [piperidine-4,2′-pyrrolo[2,1-b][1,3]oxazol]-3′-one], the EC50 amounted to 0.0342 µM.
